This passage reports thermal conductivity results from the NIST ThermoML archive (doi:10.1016/j.tca.2018.01.008).

The structures appear in SMILES notation. ± gives the expanded uncertainty stated by the source.

The conditions of this data set: 293.15 K; 101.33 kPa; Liquid; transient hot wire.

On to `OCCO` [1,2-ethanediol], for which the thermal conductivity was 0.25 ± 0.004 W/m/K. As to `O` [water], the thermal conductivity was 0.597 ± 0.01 W/m/K.
